# Test results from patent US12180146B2, “Antihypertensive polyol compound and derivative thereof” (TAO PHARMACEUTICAL (SUZHOU) CO., LTD, priority 2020, dated 2024).
# Counter-ions that a name gives are not always drawn.
# Columns and labels:
# [1] = tested on: spontaneously hypertensive rats (SHR); assay: Antihypertensive activity test: blood pressure and heart rate of spontaneously hypertensive rats (SHR); format: in vivo, rat; details: 200 mg/kg
# In short: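 Spontaneously hypertensive rats received compound at 200 mg/kg. SBP and heart rate were measured before and after dosing. A drop in SBP of ≥20 mmHg from baseline counted as effective, and heart-rate changes were tested by paired t-test (P<0.05).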
# [2] = tested on: hypoxic pulmonary hypertension model rats; assay: Hypoxic pulmonary hypertension model rats, oral (gavage) treatment for 28 days; format: in vivo, SD rats; details: hypoxic PAH rats, 25 mg/kg
# Experimental: An animal model of pulmonary hypertension in SD rats was established in a hypoxic and low-pressure environment, and compound 1 was administered by gavage at the same time for treatment. The rat pulmonary artery hemodynamics and right heart hypertrophy index RVHI were measured to determine whether compound 1 has effects of improving hypoxic pulmonary hypertension.
# (§1) SD rats (purchased from Shanghai Xipuer-Bikai Experimental Animal Co., Ltd.), male, weighing 180-200 g, were bred in an artificially controlled animal room with each 12 hours of light and darkness at a temperature of 20-25° C. and relative humidity of 50-60%, and allowed ad libitum to food and water. The rats were randomly divided into groups according to the experimental requirements, and kept separately in cages, with 3 to 4 rats per cage. All relevant operations of animal experiments are in compliance with the provisions of “Guidelines for the Management and Use of Laboratory Animals” of China.
# The hypoxic PAH model was established by placing SD male rats in a fully-automatically regulated low-pressure hypoxic chamber (atmospheric pressure of about 50 kPa, oxygen concentration of 10%) for 8 hours a day for 28 days. The rats in the blank control group were kept in a normoxic environment.
# The experimental rats of hypoxic PAH model were divided into 8 groups, namely blank control group, model group, Sidenafil (25 mg/kg) group, compound 1 (10 mg/kg) group, compound 1 (25 mg/kg) group, compound 1 (50 mg/kg) group, compound 1 (100 mg/kg) group, and compound 1 (200 mg/kg) group. The concentration in the parentheses of the group name represents the administration concentration of the compound or drug. In hypoxia-induced PAH experiments, Sidenafil is often used as a positive drug, which can reduce the pulmonary artery pressure in rats and reduce the right ventricular hypertrophy and vascular remodeling. In this experiment, 25 mg/kg of Sidenafil was used as the positive drug. Both the positive drugs Sidenafil and Compound 1 were dissolved in physiological saline and formulated into solutions of different concentrations according to different administration concentrations. The rats were continuously administered for 28 days with an administration volume of 5 ml/kg. Rats in the control and model groups were given the corresponding volume of physiological saline solution via gavage. The specific grouping can be found in Table 5.
# After the administration was completed, the POWERLAB biological information acquisition and treatment system was started, and the right cardiac catheter filled with 0.2% heparin sodium (Beijing Solo Technology Co. Ltd.) in normal saline was connected to the pressure transducer and then zero-calibrationed for use. After 20% urethane (Shanghai Yuanye Biotechnology Co., Ltd.) solution was injected into the abdominal cavity of the rats for anesthesia, the right neck hair was shaved and the right jugular vein was isolated and exposed. […] After the typical right ventricular waveform appeared and stabilized for a while, the waveform was recorded, and then the pressure value was read by Powerlab biological information acquisition and processing system (ADInstruments).
# After the pressure was measured, the catheter was taken out, and the rat was dissected immediately to take out the heart and lung tissues. The right ventricle (RV) and the left ventricle and interventricular septum (LV+S) were separated and weighed, and the right heart hypertrophy index RVHI=RV/(LV+S) was calculated. The lung lobe tissue from the right lower part of the lung was separated, soaked in 4% paraformaldehyde (Sigma) for about 1 week to prepare a paraffin section with a thickness of 3 μm, and then conducted to hematoxylin-eosin staining (Wuhan Guge Biotechnology Co., Ltd.). […]
# [3] = tested on: monocrotaline-induced pulmonary hypertension model rats (MCT-PAH); assay: Monocrotaline-induced pulmonary hypertension model rats, oral (gavage) treatment for 21 days; format: in vivo, SD rats; details: 1 mg/kg
# Excerpt: Monocrotaline (MCT) was subcutaneously injected to establish an animal model of pulmonary hypertension in SD rats. At the same time, compound 1 was given by gavage for treatment. The pulmonary artery hemodynamics and right heart hypertrophy index RVHI of the rates were detected to determine whether the oral administration of compound 1 has effects of improving Monocrotaline induces pulmonary hypertension.
# as §1
# During the experiment, SD rats were randomly divided into 4 groups: blank control group, pulmonary hypertension model group, Selexipag (1 mg/kg) treatment group and compound 1 (100 mg/kg) group with 6 rats in each group, and the concentration in brackets represents the administration concentration of the compound, in which Selexipag is a new oral long-acting prostacyclin receptor agonist discovered and synthesized by Japan New Drug Co., Ltd. On the first day of the experiment, normal saline was injected subcutaneously into the back of neck of rats in the blank control group, and monocrotaline (Chengdu Purifa Biotechnology Co., Ltd.) solution was injected in the rats in other groups at a dosage of 60 mg/kg. Both the positive drug, Selexipag and Compound 1 were administered by gavage. Selexipag and […] were dissolved in 0.5% CMC-Na solution. The rats were continuously administered for 21 days with a volume of […]. The rats in the control and model groups were given the corresponding volume of CMC-Na solution by gavage. Specific groupings can be found in Table 7.
# After the administration, the pulmonary vascular hemodynamics and RVHI was determined according to the same experiment method as that in Example 1.
# [4] = after administration (6 h M ± SD), n = 8
# [5] = before administration, M ± SD, n = 8
structure (smiles),measurement,setting,value
COc1cc(C(O)CO)ccc1O (stereo not drawn) [Compound 25],"SBP Difference before and after administration, 1 h",[1]; 1 h,8 mmHg
same,"SHR blood pressure (SBP), time after administration 1 h","[1]; 1 h, n = 8",191 ± 6.64 mmHg
same,"SBP Difference before and after administration, 2 h",[1]; 2 h,10 mmHg
same,"SHR blood pressure (SBP), time after administration 2 h","[1]; 2 h, n = 8",189 ± 7.77 mmHg
same,"SBP Difference before and after administration, 3 h",[1]; 3 h,11 mmHg
same,"SHR blood pressure (SBP), time after administration 3 h","[1]; 3 h, n = 8",186 ± 8.18 mmHg
same,"SBP Difference before and after administration, 4 h",[1]; 4 h,15 mmHg
same,"SHR blood pressure (SBP), time after administration 4 h","[1]; 4 h, n = 8",184 ± 4.56 mmHg
same,"SBP Difference before and after administration, 5 h",[1]; 5 h,12 mmHg
same,"SHR blood pressure (SBP), time after administration 5 h","[1]; 5 h, n = 8",187 ± 14.2 mmHg
same,"SBP Difference before and after administration, 6 h",[1]; 6 h,11 mmHg
same,"SHR blood pressure (SBP), time after administration 6 h","[1]; 6 h, n = 8",188 ± 5.55 mmHg
"COCCc1ccc(OCC(O)CNC(C)C)cc1 (stereo not drawn) [Metoprolol Hydrochloride, reference compound]",effect on heart rate while lowering blood pressure,[1],significantly slow down the heart rate
same,time after administration of lowest value of blood pressure,[1],3 h
same,"SHR heart rate, time after administration 0 h","[1]; 0 h, N = 8",328 ± 24.5 beat/min
same,"Heart rate Difference before and after administration, 1 h",[1]; 1 h,−44 beat/min
same,"SBP Difference before and after administration, 1 h",[1]; 1 h,20 mmHg
same,"SHR heart rate, time after administration 1 h","[1]; 1 h, N = 8",283 ± 24.4 beat/min
same,"SHR blood pressure (SBP), time after administration 1 h","[1]; 1 h, n = 8",166 ± 6.39 mmHg
same,"Heart rate Difference before and after administration, 2 h",[1]; 2 h,−45 beat/min
same,"SBP Difference before and after administration, 2 h",[1]; 2 h,22 mmHg
same,"SHR heart rate, time after administration 2 h","[1]; 2 h, N = 8",283 ± 23.1 beat/min
same,"SHR blood pressure (SBP), time after administration 2 h","[1]; 2 h, n = 8",164 ± 4.50 mmHg
same,"Heart rate Difference before and after administration, 3 h",[1]; 3 h,−49 beat/min
same,"SBP Difference before and after administration, 3 h",[1]; 3 h,25 mmHg
same,"SHR heart rate, time after administration 3 h","[1]; 3 h, N = 8",279 ± 22.3 beat/min
same,"SHR blood pressure (SBP), time after administration 3 h","[1]; 3 h, n = 8",161 ± 9.15 mmHg
same,"Heart rate Difference before and after administration, 4 h",[1]; 4 h,−48 beat/min
same,"SBP Difference before and after administration, 4 h",[1]; 4 h,24 mmHg
same,"SHR heart rate, time after administration 4 h","[1]; 4 h, N = 8",280 ± 23.0 beat/min
same,"SHR blood pressure (SBP), time after administration 4 h","[1]; 4 h, n = 8",163 ± 13.7 mmHg
same,"Heart rate Difference before and after administration, 5 h",[1]; 5 h,−43 beat/min
same,"SBP Difference before and after administration, 5 h",[1]; 5 h,23 mmHg
same,"SHR heart rate, time after administration 5 h","[1]; 5 h, N = 8",285 ± 24.0 beat/min
same,"SHR blood pressure (SBP), time after administration 5 h","[1]; 5 h, n = 8",164 ± 15.9 mmHg
same,"Heart rate Difference before and after administration, 6 h",[1]; 6 h,−40 beat/min
same,"SBP Difference before and after administration, 6 h",[1]; 6 h,18 mmHg
same,"SHR heart rate, time after administration 6 h","[1]; 6 h, N = 8",288 ± 28.5 beat/min
same,"SHR blood pressure (SBP), time after administration 6 h","[1]; 6 h, n = 8",168 ± 8.78 mmHg
same,average heart rate slowed by,[1]; 6 hours after administration,46 beats/min
same,"Blood pressure (SBP, mmHg) After administration",[1]; [4],164 ± 7.85 mmHg
same,Heart rate (beat/min) After administration,[1]; [4],282 ± 21.3 beat/min
same,Heart rate Difference (beat/min),[1]; after administration minus baseline (6 h),−46 beat/min
same,blood pressure reduction after administration,[1]; at most recorded time points,more than 20 mmHg
same,Blood pressure Difference mmHg,[1]; baseline minus after administration (6 h),23 mmHg
same,"Blood pressure (SBP, mmHg) Baseline",[1]; [5],186 ± 7.87 mmHg
same,Heart rate (beat/min) Baseline,[1]; [5],328 ± 24.5 beat/min
"CCCc1nn(C)c2c(=O)[nH]c(-c3cc(S(=O)(=O)N4CCN(C)CC4)ccc3OCC)nc12 [Sildenafil, reference compound]","value of RV/(LV+S), remodeling of the right ventricle",[2]; gavage,effectively reduce
same,2 × MT/ED,[2]; po,0.238 ± 0.018
same,RVHI,[2]; po,0.240 ± 0.028
same,RVSP,[2]; po,50.12 ± 2.96 mmHg
same,mPAP,[2]; po,14.34 ± 2.48 mmHg
"CC(C)N(CCCCOCC(=O)NS(C)(=O)=O)c1cnc(-c2ccccc2)c(-c2ccccc2)n1 [selexipag, reference compound]",pulmonary arteriole hypertrophy vs. Model,[3],significantly reduced
same,2 × MT/ED,[3]; twice a day,0.30 ± 0.086
same,RVHI,[3]; twice a day,0.27±0.026
same,RVSP,[3]; twice a day,35.67 ± 2.89 mmHg
same,mPAP,[3]; twice a day,8.78 ± 1.98 mmHg
